Consider 1 compound from patent US10717788B2, “Cyclodextrin functionalized nanoparticles for quenching bacterial communications” (University of South Carolina, priority 2014, dated 2020).

Experiment [1] in a line: NMR diffusion experiments, binding affinity of cyclodextrin for N-octanoyl-homoserine lactone. To be noted: based on dissociation constants calculated from the diffusion data. On the procedure: To confirm that cyclodextrin was the active quenching agent in the model system, NMR diffusion experiments were performed.
In experiment [2] the test system is Vibrio fischeri. Put plainly: Growth studies: luminescence of Vibrio fischeri in vitro. The experiment is classed as cell-based.
Experiment [3] concerns Vibrio fischeri. Put plainly: Quantification of gene expression during luminescence. It counts as cell-based.

For `OC[C@H]1O[C@@H]2O[C@H]3[C@H](O)[C@@H](O)[C@@H](O[C@H]4[C@H](O)[C@@H](O)[C@@H](O[C@H]5[C@H](O)[C@@H](O)[C@@H](O[C@H]6[C@H](O)[C@@H](O)[C@@H](O[C@H]7[C@H](O)[C@@H](O)[C@@H](O[C@H]8[C@H](O)[C@@H](O)[C@@H](O[C@H]1[C@H](O)[C@H]2O)O[C@@H]8CO)O[C@@H]7CO)O[C@@H]6CO)O[C@@H]5CO)O[C@@H]4CO)O[C@@H]3CO` [cyclodextrin, β-Cyclodextrin], the “binding of N-octanoyl-homoserine lactone (complex formation)” value in experiment [1] was “able to bind cyclodextrin and form a complex”. Moreover, the luminescence entry with Vibrio fischeri [2] is given as “reduce luminescence”. Further, the “production of autoinducers and luciferase (gene expression)” value in the experiment with Vibrio fischeri [3] is “decrease in the production of autoinducers and luciferase”.
